In patent US8772504B2, “Substituted benzoxazole, benzimidazole, oxazolopyridine and imidazopyridine derivatives as gamma secretase modulators” (Janssen Pharmaceuticals, Inc., priority 2009, dated 2014):

Legend:
Aβtotal = experiment: Screening for γ-secretase-modulating activity, Method 1: Aβtotal sandwich ELISA on SKNBE2 cell media; format: cell-based; conditions: SKNBE2 cells carrying APP 695 wild type
Description: (§1) Screening was carried out using SKNBE2 cells carrying the APP 695—wild type, grown in Dulbecco's Modified Eagle's Medium/Nutrient mixture F-12 (DMEM/NUT-mix F-12) (HAM) provided by Gibco (cat no. 31330-38) containing 5% Serum/Fe supplemented with 1% non-essential amino acids. Cells were grown to near confluency.
(§2) The screening was performed using the assay as described in Citron et al (1997) Nature Medicine 3: 67. Briefly, cells were plated in a 96-well plate at about 10^5 cells/ml one day prior to addition of compounds. Compounds were added to the cells in Ultraculture (Lonza, BE12-725F) supplemented with 1% glutamine (Invitrogen, 25030-024) for 18 hours. The media were assayed by two sandwich ELISAs, for Aβ42 and Aβtotal. Toxicity of the compounds was assayed by WST-1 cell proliferation reagent (Roche, 1 644 807) according to the manufacturer's protocol.
To quantify the amount of Aβtotal in the cell supernatant, samples and standards were added to a 6E10-coated plate. The plate was allowed to incubate overnight at 4° C. in order to allow formation of the antibody-amyloid complex. Following this incubation and subsequent wash steps a selective anti-Aβ-antibody conjugate (biotinylated 4G8) was added and incubated for a minimum of 1 hour in order to allow formation of the antibody-Amyloid-antibody-complex. After incubation and appropriate wash steps, a Streptavidine-Peroxidase-Conjugate was added, followed 30 minutes later by an addition of Quanta Blu fluorogenic peroxidase substrate according to the manufacturer's instructions (Pierce Corp., Rockford, Ill.).
(§3) To obtain the values reported in Table 3a, the sigmoidal dose response curves were analysed by computerised curve-fitting, with percent of inhibition plotted against compound concentration. A 4-parameter equation (model 205) in XLfit was used to determine the IC50. The top and the bottom of the curve were fixed to 100 and 0, respectively, and the hill slope was fixed to 1. The IC50 represents the concentration of a compound that is required for inhibiting a biological effect by 50% (Here, it is the concentration where Aβ peptide level is reduced by 50%).
(§4) To obtain the values reported in Table 3b, the data were calculated as percentage of the maximum amount of amyloid Beta 42 measured in the absence of the test compound. The sigmoidal dose response curves were analyzed using non-linear regression analysis with percentage of the control plotted against the log concentration of the compound. A 4-parameter equation was used to determine the IC50. The values reported in Table 3b are averaged IC50 values.

Aβ42 = experiment: Screening for γ-secretase-modulating activity, Method 1: Aβ42 sandwich ELISA on SKNBE2 cell media; format: cell-based; conditions: SKNBE2 cells carrying APP 695 wild type
Description: as §1, §2
To quantify the amount of Aβ42 in the cell supernatant, commercially available Enzyme-Linked-Immunosorbent-Assay (ELISA) kits were used (Innotest® β-Amyloid(1-42), Innogenetics N.V., Ghent, Belgium). The Aβ42 ELISA was performed essentially according to the manufacturer's protocol. Briefly, the standards (dilutions of synthetic Aβ1-42) were prepared in polypropylene Eppendorf with final concentrations of 8000 down to 3.9 pg/ml (1/2 dilution step). Samples, standards and blanks (100 μl) were added to the anti-Aβ42-coated plate supplied with the kit (the capture antibody selectively recognizes the C-terminal end of the antigen). The plate was allowed to incubate 3 h at 25° C. in order to allow formation of the antibody-amyloid complex. Following this incubation and subsequent wash steps a selective anti-Aβ-antibody conjugate (biotinylated 3D6) was added and incubated for a minimum of 1 hour in order to allow formation of the antibody-Amyloid-antibody-complex. After incubation and appropriate wash steps, a Streptavidine-Peroxidase-Conjugate was added, followed 30 minutes later by an addition of 3,3′,5,5′-tetramethylbenzidine (TMB)/peroxide mixture, resulting in the conversion of the substrate into a coloured product. This reaction was stopped by the addition of sulfuric acid (0.9 N) and the colour intensity was measured by means of photometry with an ELISA-reader with a 450 nm filter.
as §3, §4

[1] = Table 3a, 18 hours, XLfit, top/bottom fixed to 100 and 0, hill slope 1
[2] = Table 3b, non-linear regression of % of control, averaged IC50 values
[3] = Homo sapiens, Table 3a, 18 hours, XLfit, top/bottom fixed to 100 and 0, hill slope 1
[4] = Homo sapiens, Table 3b, non-linear regression of % of control, averaged IC50 values

| Compound | IC50 (Aβtotal; [1]) [µM] | IC50 (Aβtotal; [2]) [µM] | IC50 (Aβ42; [1]) [µM] | IC50 (Aβ42; [2]) [µM] | IC50 (Aβtotal; [3]) [µM] | IC50 (Aβtotal; [4]) [µM] | IC50 (Aβ42; [3]) [µM] | IC50 (Aβ42; [4]) [µM] |
| --- | --- | --- | --- | --- | --- | --- | --- | --- |
| COc1cc(Nc2cccc3oc(C4CCCC4)nc23)ccc1-n1cnc(C)c1 [Compound 37] | > 10 | > 10 | 0.266 | 0.275 |  |  |  |  |
| COc1cc(Nc2cccc3c2nc(N2CCCCC2)n3C)ccc1-n1cnc(C)c1 [Compound 39] | > 3 | > 5 | 0.069 | 0.087 |  |  |  |  |
| COc1cc(Nc2cccc3oc(C4CCN(C(=O)OC(C)(C)C)CC4)nc23)ccc1-n1cnc(C)c1 [Compound 42] | > 3 | > 3 | 1.1 | 1.1 |  |  |  |  |
| COc1cc(Nc2cccc3c2nc(CC2CCOCC2)n3C)ccc1-n1cnc(C)c1 [Compound 43] | > 1 | > 5 | 0.123 | 0.12 |  |  |  |  |
| COc1cc(Nc2cccc3c2nc(-c2ccccc2C)n3Cc2ccccc2)ccc1-n1cnc(C)c1 [Compound 46] |  |  |  |  | > 1 | > 3 | 0.01 | 0.01 |
| COc1ccc(-c2nc3c(Nc4ccc(-n5cnc(C)c5)c(OC)c4)cccc3n2C)cc1 [Compound 47] | > 1 | > 3 | 0.016 | 0.013 |  |  |  |  |
| COc1ccccc1-c1nc2c(Nc3ccc(-n4cnc(C)c4)c(OC)c3)cccc2o1 [Compound 48] | > 10 | > 10 | 0.427 | 0.398 |  |  |  |  |
| COc1cccc(-c2nc3c(Nc4ccc(-n5cnc(C)n5)cc4)cccc3n2C)c1 [Compound 50] | > 10 | > 10 | 0.101 | 0.081 |  |  |  |  |
| COc1cccc(-c2nc3c(Nc4ccc(-n5cnc(C)n5)c(OC)c4)cccc3n2C)c1 [Compound 52] | > 3 | > 3 | 0.02 | 0.019 |  |  |  |  |
| COc1cccc(-c2nc3c(Nc4ccc(-n5cnc(C)n5)c(OC)c4)cccc3n2C(C)C)c1 [Compound 53] | > 1 | > 3 | 0.022 | 0.019 |  |  |  |  |
| CCOc1cc(C)c(-c2nc3c(Nc4ccc(-n5cnc(C)n5)c(OC)c4)cccc3n2C)cc1C(C)C [Compound 58] | > 3 | > 3 | 0.068 | 0.065 |  |  |  |  |
| CCOc1cc(C)c(Nc2nc3c(Nc4ccc(-n5cnc(C)c5)c(OC)c4)cccc3n2C)cc1C(C)C [Compound 60] | > 1 | > 3 | 0.014 | 0.014 |  |  |  |  |
| COc1cc(Nc2cccc3[nH]c(-c4ccc(F)cc4)nc23)ccc1-n1cnc(C)c1 [Compound 62] | > 1 | > 3 | 0.114 | 0.195 |  |  |  |  |
| COc1cc(Nc2cccc3c2nc(-c2ccc(F)cc2)n3C)ccc1-n1ccnc1 [Compound 63] | > 1 | > 3 | 0.023 | 0.022 |  |  |  |  |
| COc1cc(Nc2cccc3c2nc(-c2ccc(F)cc2)n3C)ccc1-n1cncn1 [Compound 64] | > 3 | > 3 | 0.048 | 0.049 |  |  |  |  |
| Cn1c(-c2ccc(F)cc2)nc2c(Nc3ccc(-n4cncn4)c(F)c3)cccc21 [Compound 65] | > 3 | > 3 | 0.089 | 0.081 |  |  |  |  |
| COc1cc(Nc2cccc3c2nc(-c2ccc(F)cc2)n3C)ccc1-n1cnc(C#N)c1 [Compound 72] | > 3 | > 3 | 0.72 | 0.724 |  |  |  |  |
| Cc1ncn(-c2ccc(Nc3cccc4c3nc(-c3ccc(F)cc3)n4C(C)(C)C)cc2)n1 [Compound 77] | > 3 | > 3 | 0.19 | 0.191 |  |  |  |  |
| COc1cc(Nc2cccc3c2nc(-c2ccc(F)cc2)n3Cc2ccccc2)ccc1-n1cnc(C)c1 [Compound 79] | > 10 | > 10 | 0.024 | 0.023 |  |  |  |  |
